Laboratory results published in the NIST ThermoML archive (doi:10.1016/j.jct.2017.08.004).

Conditions: for molar entropy: 101.33 kPa; for Normal melting temperature: DTA

OC[C@H](O)C(O)[C@@H](O)CO [L-(-)-arabitol]
Conditions	molar entropy [J/K/mol]
1 K, Crystal, relaxation calorimetry	0.0005209
2 K, Crystal, relaxation calorimetry	0.002213
3 K, Crystal, relaxation calorimetry	0.006332
4 K, Crystal, relaxation calorimetry	0.0143
5 K, Crystal, relaxation calorimetry	0.0278
6 K, Crystal, relaxation calorimetry	0.04885
7 K, Crystal, relaxation calorimetry	0.07993
8 K, Crystal, relaxation calorimetry	0.1243
9 K, Crystal, relaxation calorimetry	0.1854
10 K, Crystal, relaxation calorimetry	0.2663
15 K, Crystal, relaxation calorimetry	1.038
20 K, Crystal, relaxation calorimetry	2.479
25 K, Crystal, relaxation calorimetry	4.532
30 K, Crystal, relaxation calorimetry	7.074
35 K, Crystal, relaxation calorimetry	9.99
40 K, Crystal, relaxation calorimetry	13.19
45 K, Crystal, relaxation calorimetry	16.61
50 K, Crystal, relaxation calorimetry	20.19
55 K, Crystal, relaxation calorimetry	23.88
60 K, Crystal, relaxation calorimetry	27.65
65 K, Crystal, relaxation calorimetry	31.48
70 K, Crystal, relaxation calorimetry	35.36
75 K, Crystal, relaxation calorimetry	39.27
80 K, Crystal, relaxation calorimetry	43.19
85 K, Crystal, relaxation calorimetry	47.12
90 K, Crystal, relaxation calorimetry	51.04
95 K, Crystal, relaxation calorimetry	54.97
100 K, Crystal, relaxation calorimetry	58.89
110 K, Crystal, relaxation calorimetry	66.69
120 K, Crystal, relaxation calorimetry	74.44
130 K, Crystal, relaxation calorimetry	82.11
140 K, Crystal, relaxation calorimetry	89.7
150 K, Crystal, relaxation calorimetry	97.21
160 K, Crystal, relaxation calorimetry	104.63
170 K, Crystal, relaxation calorimetry	111.97
180 K, Crystal, relaxation calorimetry	119.24
190 K, Crystal, relaxation calorimetry	126.44
200 K, Crystal, relaxation calorimetry	133.58
210 K, Crystal, relaxation calorimetry	140.66
220 K, Crystal, relaxation calorimetry	147.69
230 K, Crystal, relaxation calorimetry	154.69
240 K, Crystal, relaxation calorimetry	161.65
250 K, Crystal, relaxation calorimetry	168.59
260 K, Crystal, relaxation calorimetry	175.51
270 K, Crystal, relaxation calorimetry	182.43
273.15 K, Crystal, relaxation calorimetry	184.6
280 K, Crystal, relaxation calorimetry	189.34
290 K, Crystal, relaxation calorimetry	196.25
298.15 K, Crystal, relaxation calorimetry	201.89
300 K, Crystal, relaxation calorimetry	203.17
305 K, Crystal, Small sample (50 mg) DSC	206.64
310 K, Crystal, Small sample (50 mg) DSC	210.13
315 K, Crystal, Small sample (50 mg) DSC	213.64
320 K, Crystal, Small sample (50 mg) DSC	217.18
325 K, Crystal, Small sample (50 mg) DSC	220.73
330 K, Crystal, Small sample (50 mg) DSC	224.32
335 K, Crystal, Small sample (50 mg) DSC	227.93
340 K, Crystal, Small sample (50 mg) DSC	231.6
345 K, Crystal, Small sample (50 mg) DSC	235.34
350 K, Crystal, Small sample (50 mg) DSC	239.2
355 K, Crystal, Small sample (50 mg) DSC	243.24
360 K, Crystal, Small sample (50 mg) DSC	247.71
380 K, Liquid, Small sample (50 mg) DSC	355.56
385 K, Liquid, Small sample (50 mg) DSC	361.46
390 K, Liquid, Small sample (50 mg) DSC	367.15
395 K, Liquid, Small sample (50 mg) DSC	372.77
400 K, Liquid, Small sample (50 mg) DSC	378.34
405 K, Liquid, Small sample (50 mg) DSC	383.87
410 K, Liquid, Small sample (50 mg) DSC	389.35
415 K, Liquid, Small sample (50 mg) DSC	394.8

Conditions	Normal melting temperature [°C]
Crystal	96.70

OC[C@@H](O)[C@@H](O)CO [meso-1,2,3,4-butanetetrol]
Conditions	molar entropy [J/K/mol]
1 K, Crystal, relaxation calorimetry	0.0005942
2 K, Crystal, relaxation calorimetry	0.002515
3 K, Crystal, relaxation calorimetry	0.007205
4 K, Crystal, relaxation calorimetry	0.01633
5 K, Crystal, relaxation calorimetry	0.03184
6 K, Crystal, relaxation calorimetry	0.05604
7 K, Crystal, relaxation calorimetry	0.09153
8 K, Crystal, relaxation calorimetry	0.1411
9 K, Crystal, relaxation calorimetry	0.2079
10 K, Crystal, relaxation calorimetry	0.2944
15 K, Crystal, relaxation calorimetry	1.077
20 K, Crystal, relaxation calorimetry	2.466
25 K, Crystal, relaxation calorimetry	4.373
30 K, Crystal, relaxation calorimetry	6.67
35 K, Crystal, relaxation calorimetry	9.244
40 K, Crystal, relaxation calorimetry	12.02
45 K, Crystal, relaxation calorimetry	14.94
50 K, Crystal, relaxation calorimetry	17.96
55 K, Crystal, relaxation calorimetry	21.05
60 K, Crystal, relaxation calorimetry	24.19
65 K, Crystal, relaxation calorimetry	27.37
70 K, Crystal, relaxation calorimetry	30.57
75 K, Crystal, relaxation calorimetry	33.79
80 K, Crystal, relaxation calorimetry	37.01
85 K, Crystal, relaxation calorimetry	40.23
90 K, Crystal, relaxation calorimetry	43.44
95 K, Crystal, relaxation calorimetry	46.65
100 K, Crystal, relaxation calorimetry	49.83
110 K, Crystal, relaxation calorimetry	56.17
120 K, Crystal, relaxation calorimetry	62.43
130 K, Crystal, relaxation calorimetry	68.62
140 K, Crystal, relaxation calorimetry	74.74
150 K, Crystal, relaxation calorimetry	80.8
160 K, Crystal, relaxation calorimetry	86.79
170 K, Crystal, relaxation calorimetry	92.72
180 K, Crystal, relaxation calorimetry	98.61
190 K, Crystal, relaxation calorimetry	104.44
200 K, Crystal, relaxation calorimetry	110.22
210 K, Crystal, relaxation calorimetry	115.97
220 K, Crystal, relaxation calorimetry	121.68
230 K, Crystal, relaxation calorimetry	127.36
240 K, Crystal, relaxation calorimetry	133.01
250 K, Crystal, relaxation calorimetry	138.64
260 K, Crystal, relaxation calorimetry	144.24
270 K, Crystal, relaxation calorimetry	149.82
273.15 K, Crystal, relaxation calorimetry	151.57
280 K, Crystal, relaxation calorimetry	155.38
290 K, Crystal, relaxation calorimetry	160.92
298.15 K, Crystal, relaxation calorimetry	165.43
300 K, Crystal, relaxation calorimetry	166.46
305 K, Crystal, Small sample (50 mg) DSC	169.22
310 K, Crystal, Small sample (50 mg) DSC	172
315 K, Crystal, Small sample (50 mg) DSC	174.78
320 K, Crystal, Small sample (50 mg) DSC	177.57
325 K, Crystal, Small sample (50 mg) DSC	180.36
330 K, Crystal, Small sample (50 mg) DSC	183.15
335 K, Crystal, Small sample (50 mg) DSC	185.94
340 K, Crystal, Small sample (50 mg) DSC	188.74
345 K, Crystal, Small sample (50 mg) DSC	191.53
350 K, Crystal, Small sample (50 mg) DSC	194.32
355 K, Crystal, Small sample (50 mg) DSC	197.11
360 K, Crystal, Small sample (50 mg) DSC	199.9
365 K, Crystal, Small sample (50 mg) DSC	202.7
370 K, Crystal, Small sample (50 mg) DSC	205.49
375 K, Crystal, Small sample (50 mg) DSC	208.29
380 K, Crystal, Small sample (50 mg) DSC	211.1
385 K, Crystal, Small sample (50 mg) DSC	213.99
390 K, Crystal, Small sample (50 mg) DSC	217.51
405 K, Liquid, Small sample (50 mg) DSC	333.59
410 K, Liquid, Small sample (50 mg) DSC	338.24
415 K, Liquid, Small sample (50 mg) DSC	342.55
420 K, Liquid, Small sample (50 mg) DSC	346.8
425 K, Liquid, Small sample (50 mg) DSC	351
430 K, Liquid, Small sample (50 mg) DSC	355.15
435 K, Liquid, Small sample (50 mg) DSC	359.26

Conditions	Normal melting temperature [°C]
Crystal	121.67
